From patent US6605704B1, “Plant-origin regulator protein and nucleic acid encoding the same” (Japan Tobacco Inc., priority 1999, dated 2003)
Like-named read-outs stand apart in the source and are kept apart here.

Experiments:
mRNA of ZmCip1 [1] = assay: Northern analysis after t-zeatin, benzyladenine or abscisic acid treatment of cut leaves; assay type: cell-based, maize (Zea mays L.cv. Golden Cross Bantam T51); details: 100 or 180 minutes, nitrogen-deficient leaves
Experimental: (§1) The cut leaves of the maize cultivated under the low-nitrogen condition as mentioned above was treated with 5 μM t-zeatin or with water for 0 minute, 30 minutes, 45 minutes, 60 minutes or 90 minutes, and the ⅓ portions from the distal ends of the leaves was collected. After freezing the collected leaves with liquid nitrogen, RNAs were extracted by the guanidine thiocyanate/cesium chloride method. Ten micrograms of the obtained RNAs were fractionated by formaldehyde gel (1%) electrophoresis and the resultant was transferred to a nylon membrane. Hybridization was performed using ZmCip1 cDNA or maize ubiquitin gene as a probe.
(10) The cut leaves of the maize cultivated under the low-nitrogen condition as mentioned above were treated with 5 μM t-zeatin, 5 μM benzyladenine, 10 μM±abscisic acid or with water for 100 minutes or 180 minutes, and Northern analysis was performed as in (4).

mRNA of ZmCip1 [2] = assay: Northern analysis of induction of expression of CIP1 by ammonium ion, cut leaves; assay type: cell-based, maize (Zea mays L.cv. Golden Cross Bantam T51); details: 6 mM NH4+, nitrogen-deficient maize green leaves
Experimental: (§2) The cut leaves of the maize cultivated under the low-nitrogen condition as mentioned above were treated with 16 mM NaNO3 solution or with 0.08 mM NaNO3 solution for 0 hour, 2 hours, 5 hours, […] or 24 hours and Northern analysis was carried out in the same manner as in (4) except that the weight of the RNAs applied to each gel was 20 μg, respectively, and that a non-coding region of ZmCip1 was used as a probe.
The cut leaves of the maize cultivated under the low-nitrogen condition as mentioned above were treated with 6 mM NH4^+ solution or with 0.08 mM NaNO3 solution for 0 to 7 hours and Northern analysis was carried out in the same manner as in (5) except that the weight of the RNAs applied to each gel was 15 μg.

mRNA of ZmCip 1 = assay: Northern analysis of induction of expression of CIP1 by cytokinin treatment and cycloheximide treatment; assay type: cell-based, maize (Zea mays L.cv. Golden Cross Bantam T51); details: as printed under experiment (8), nitrogen-deficient maize green leaves
Experimental: as §2
The cut leaves of the maize cultivated under the low-nitrogen condition as mentioned above were treated (i) with water for 60 minutes and then with water for 90 minutes, (ii) with water for 60 minutes and then with 5 μM t-zeatin for 90 minutes, (iii) with 20 μg/ml of cycloheximide for 60 minutes and then with 20 μg/ml cycloheximide and 5 μM t-zeatin for 90 minutes, or (iv) with 20 μg/ml of cycloheximide for 60 minutes and then with 20 μg/ml of cycloheximide for 90 minutes, and Northern analysis was performed in the same manner as in (5) except that the amount of the RNAs applied to each gel was 30 μg.

mRNA of ZmCip1 [3] = tested on: mRNA of ZmCip1
Experimental: as §1, §2

mRNA of ZmCip1 [4] = details: 16 mM NaNO3, 5 hours after treatment
Experimental: as §2
The maize cultivated under the low-nitrogen condition as mentioned above was treated with 16 mM NaNO3 solution or with 0.08 mM NaNO3 solution for 5 hours, and its leaf blades, leaf sheaths and roots were separately collected, followed by Northern analysis in the same manner as in (5) except that the amount of the RNAs from leaf sheaths or roots applied to each gel was 30 μg.

mRNA of ZmCip1 [5] = details: 5 μM, nitrogen-deficient maize green leaves
Experimental: as §1

mRNA of ZmCip1 [6] = details: 10^−11 to 10^−7 M tested, 100 or 180 minutes, cut leaves
Experimental: as §2

mRNA of ZmCip1 [7] = details: 5 μM, 100 minutes, nitrogen-deficient leaves
Experimental: as §2
The cut leaves of the maize cultivated under the low-nitrogen condition as mentioned above were treated with 5 μM t-zeatin, 5 μM zeatin-O-glucoside or with water for 100 minutes, and Northern analysis was performed in the same manner as in (5), except that the amount of the RNAs applied to each gel was 15 μg.

Experimental for ZmCip1 gene: (3) Assay of Induction of Expression of CIP 1 by Cytokinin Treatment (Run-Off Transcription Assay) Run-off transcription assay for expression of ZmCip1 gene was carried out. Nuclei were isolated from maize mesophyll cells and its RNA synthesis activity was measured according to a reported method (I. Suzuki, C. Cretin, T. Omata, T. Sugiyama, Plant Physiol.105:1223,1994). The RNAs synthesized by the isolated nuclei were fractionated by formaldehyde gel electrophoresis and the fractionated RNAs were transferred to a nylon membrane, followed by hybridization with ^32P-labeled ZmCip 1 cDNA or C4Ppc1 cDNA. The intensity of the detected signal was measured by Bio Imaging Analyzer (BAS2000, Fuji Film).

## CC1=CC(=O)CC(C)(C)[C@@]1(O)/C=C/C(C)=C\C(=O)O [abscisic acid]
mRNA of ZmCip1 [1]; 10 μM
  induction of expression of ZmCip1 mRNA: slightly induced

## N [ammonium ion]
mRNA of ZmCip1 [2]
  time after treatment at which ZmCip1 mRNA was confirmed: 5 h
  time after treatment at which the gene was strongly expressed: 6 to 7 h
mRNA of ZmCip 1
  time after treatment at which ZmCip1 mRNA was confirmed: 5 h
  time after treatment at which the gene was strongly expressed: 6 to 7 h

## c1ccc(CNc2ncnc3nc[nH]c23)cc1 [benzyladenine]
mRNA of ZmCip1 [1]; 5 μM
  induction of expression of ZmCip1 mRNA: induced

## O=[N+]([O-])[O-].[Na+] [nitrate ion, NaNO3]
mRNA of ZmCip1 [3]; 16 mM NaNO3, 24 hours
  expression of the gene 24 hours after the treatment: scarcely observed
mRNA of ZmCip1 [3]; 16 mM NaNO3, nitrogen-deficient green leaves
  time after treatment at which accumulation of ZmCip1 mRNA was confirmed: 5 to 6 h
mRNA of ZmCip1 [4]; nitrogen-deficient maize green leaves
  accumulation of ZmCip1 mRNA in green leaves: confirmed
mRNA of ZmCip1 [4]; roots
  expression of ZmCip1 mRNA in roots: scarcely observed

## C/C(=C\CNc1ncnc2[nH]cnc12)CO [t-zeatin]
mRNA of ZmCip1 [5]
  time after treatment at which accumulation of ZmCip1 mRNA was confirmed: 30 min
  time after treatment at which the gene was strongly expressed: 45 to 90 min
mRNA of ZmCip1 [6]
  low level of t-zeatin at which expression of ZmCip1 mRNA was induced: 10^−9 M
mRNA of ZmCip1 [1]; 5 μM
  induction of expression of ZmCip1 mRNA: induced
mRNA of ZmCip1 [7]
  induction of expression of ZmCip1 mRNA: induced
ZmCip1 gene; cut leaves of maize cultivated under low-nitrogen condition, nuclei from mesophyll cells
  treatment time that causes transcription of ZmCip1 mRNA: 20 min
ZmCip1 gene; same leaves treated with t-zeatin
  timing of ZmCip1 transcription compared with transcription of C4Ppc1 mRNA: much earlier stage

## zeatin-O-glucoside
mRNA of ZmCip1 [7]
  induction of expression of ZmCip1 mRNA: induced
